Reference: BigSolDB 2.1

C=C1C[C@]23C[C@H]1CC[C@H]2[C@@]12CC[C@H](O)[C@@](C)(C(=O)O1)[C@H]2[C@@H]3C(=O)O
solubility (mole fraction)
Conditions	in acetone	in acetonitrile	in ethanol	in ethyl acetate	in isopropanol	in methanol	in n-butanol	in water
278.15 K	0.053	0.00391	0.000809	0.0105	0.0691	0.0466	0.0588	9e-06
283.15 K	0.057	0.00457	0.000911	0.0118	0.0745	0.051	0.0613	1.2e-05
288.15 K	0.0596	0.00529	0.00107	0.0134	0.0775	0.0559	0.0674	1.7e-05
293.15 K	0.0645	0.00647	0.00118	0.0157	0.0859	0.0637	0.0723	2.1e-05
298.15 K	0.0692	0.00776	0.00133	0.0172	0.0916	0.0705	0.0762	2.8e-05
303.15 K	0.0759	0.00907	0.00159	0.0195	0.0969	0.0743	0.0798	3.4e-05
308.15 K	0.0801	0.0108	0.00187	0.0211	0.103	0.0805	0.0836	4.4e-05
313.15 K	0.0862	0.0124	0.00217	0.0239	0.11	0.0882	0.0872	5.3e-05
318.15 K	0.0917	0.0135	0.00257	0.0265	0.12	0.0933	0.0931	6.1e-05
323.15 K	0.0983	0.0149	0.00273	0.0299	0.123	0.101	0.1	7.3e-05
328.15 K	0.106	0.0168	0.00318	0.0325	0.131	0.11	0.109	9.2e-05
333.15 K	0.112	0.0188	0.00387	0.0357	0.14	0.121	0.119	0.00012
